This note sets out measurements from patent US6358984B1, “2,4-dioxopyrrolidine and 2,4-dioxotetrahydrofuran derivatives and medicines containing the same as the active ingredient” (Lead Chemical Co., Ltd., priority 1996, dated 2002).

Like-named read-outs stand apart in the source and are kept apart here.

For series [1], the system named is hypertension caused by angiotensin II. Description: Inhibition effect in the hypertension caused by angiotensin II using rats. Particulars: i. v., male SD rats, angiotensin II 100 ng/kg; for inhibition in vivo at 1 mg/kg: Rattus norvegicus, iv. It counts as in vivo, rat. The procedure: Male SD rats (age; 11 weeks; 310 to 330 g) Were used, and indwelling cannula were placed in the femoral aorta and the vena cava, under anesthesia with inactin. The arterial cannula was connected to a pressure transducer to record the blood pressure via a carrier amplifier (AP-601G Japan Photoelectronics) using a polygraph system (RM-6000 Japan Photoelectronics). Prior to tests using the test compounds, 100 ng/kg-equivalent angiotensin II (50 μl of serum solution from the rat) was administered using a regular-pulse cannula to check the hypertensive action. Then, 30 minutes later, a 1 mg/kg-equivalent test compound (50 μl of serum solution from the rat) was administered using the regular-pulse cannula, and similar administration of angiotensin II was performed 5 and 60 minutes later to check the corresponding hypertensive action. The hypertensive effect resulting from the administration of only angiotensin II was taken as a reference value of 100% to determine the antihypertensive rates of the test compounds.

The subject of the next series is aortae of guinea pigs. Description: Inhibition of vascular contraction caused by angiotensin II using pieces of the aortae of guinea pigs. It counts as cell-based. As to conditions: guinea pig chest aorta, contraction induced by angiotensin II, read-out: Vascular contraction inhibition effect IC50. The procedure:
Male Hartly guinea pigs (350 to 400 g) were contused on the head and sacrificed by allowing their blood to discharge from the arteria carotis communis. Immediately after death, the chest aorta was removed. A spiral sample of width 2 to 3 mm and length 20 to 25 mm was cut from the aorta, and was suspended in 4.5 ml of Krebs-Henseleit (K-H) solution (120 mM NaCl, 4.7 mM KCl, […], 1.2 mM KH2PO4, 2.5 mM CaCl2, 25 mM NaHCO3, and 10 mM glucose) in a Magnus vessel. The K-H solution in the Magnus vessel was maintained at 37° C., and a mixture gas of 95% O2 and 5% CO2 was continuously bubbled through the solution. First, 1 g of initial tension was applied to the sample, which was then left to stand rest for about 30 minutes, and 45 μl of 4M KCl solution was added to the solution to induce contraction. After contraction had stabilized, a washing operation was performed to replace the K-H solution. Then, after the sample was left to stand for 30 minutes, 45 μl of solvent DMSO was added to incubate the sample for 15 minutes, and 45 μl of angiotensin II solution (3×10^−8M) was added to induce contraction. This operation was repeated three times and 100% contraction was used as the average. Subsequently, the sample was stabilized by washing. Then, a 45 μl sample of each test compound prepared for each concentration (3×10^−5M to 10^−7M) using DMSO as a solvent was used to observe the inhibition effect of angiotensin II on vascular contraction by performing the same operation as described above. The contraction reaction was recorded on a recorder (RTA-1100, Japan Photoelectronics) via an equi-scale pressure transducer (TB-651T, Japan Photoelectronics). The angiotensin II inhibition effects of the test compounds were evaluated using the IC50 value.

The target of a further series is T1, angiotensin II receptor (Oryctolagus cuniculus, UniProt P34976).
T1 construct: fraction of angiotensin II receptor membrane ([…]) prepared from rabbit adrenal gland; from tissue; host or cells: rabbit adrenal gland membrane fraction
T1 sequence (P34976 1-359): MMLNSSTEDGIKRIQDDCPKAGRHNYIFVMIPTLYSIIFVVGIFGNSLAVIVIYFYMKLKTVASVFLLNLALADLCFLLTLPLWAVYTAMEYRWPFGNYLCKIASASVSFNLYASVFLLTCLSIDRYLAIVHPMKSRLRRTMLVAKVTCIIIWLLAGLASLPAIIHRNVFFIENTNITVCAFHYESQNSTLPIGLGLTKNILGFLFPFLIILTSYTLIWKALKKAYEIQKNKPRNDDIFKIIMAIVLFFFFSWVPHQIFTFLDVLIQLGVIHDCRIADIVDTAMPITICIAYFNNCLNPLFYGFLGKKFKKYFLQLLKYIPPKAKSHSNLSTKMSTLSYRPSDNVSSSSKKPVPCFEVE
Description: Binding inhibition of 3H labeled angiotensin II to angiotensin II receptor membrane fraction. More on the design: species or system rabbit. Particulars: rabbit adrenal gland membrane, 3H labeled angiotensin II 10^-9M; read-out: Receptor binding inhibition effect IC50. The procedure: The method of Cox et. al (Biochemical Pharmacology 33, 4057-4064 (1984) was modified to conduct angiotensin II receptor binding inhibition experiments. The present compounds (10^−5M to 10^−9M) and ^3H labeled angiotensin II (10^−9M) were added to a fraction of angiotensin II receptor membrane ([…]) prepared from rabbit adrenal gland and were allowed to react in a 20 mM Tris HCl buffer (pH: 7.0) containing 120 mM NaCl, 5 mM EDTA, 0.1 mM PMSF, and 0.2% BSA at 30° C. for 20 minutes so that the final volume was 540 μl. Then, the reaction mixture was quickly passed through a filter (whatman GF/B), and the filter was then rinsed three times in 4 ml of the buffer cooled in ice. Then, the radioactivity of receptor binding ^3H labeled angiotensin II captured on the filter was measured using a liquid scintillation counter. The angiotensin II receptor binding inhibition activity of the present compounds was evaluated based on the concentration (IC 50) required to replace 50% of the total amount of specifically binding ^3H labeled angiotensin II.

As usually defined, the IC50 is the concentration at which inhibition is half-maximal. For “5-Butyl-3-(3-fluorophenyl)-1-[2′-[(4-hydroxy-2(5H)-furanone-5(Z)-ylidene)methyl]biphenyl-4-yl]methyl-1H-1,2,4-triazole [Compound 2h]”, in series [1] (1 mg/kg, 5 minutes after administration), the “Inhibition effect in the hypertension by angiotensin II, 5 minutes after administration” value is “+ (30% > + ≧ 10%)”. The “Inhibition effect in the hypertension by angiotensin II, 60 minutes after administration” value in series [1] (1 mg/kg, 60 minutes after administration) is recorded as “− (10% > −)”. In addition, the IC50 in the series on aortae of guinea pigs was determined as 220 µM.
In general, melting point refers to the temperature of the solid-liquid transition. In turn, `CCCc1nc(CCC)n(Cc2ccc(-c3ccccc3/C=C3\NC(=O)CC3=O)cc2)n1` [Compound 1a, 3,5-Dipropyl-1-[2′-[(2,4-dioxopyrrolidine-5(Z)-ylidene)methyl]biphenyl-4-yl]methyl-1H-1,2,4-triazole] gave a melting point of 179 to 180 °C. The inhibition in vivo at 1 mg/kg in series [1] (5 min, 5 minutes after administration, read-out: Inhibition effect in the hypertension by angiotensin II, 5 minutes after administration) lay in the range of 30 to 70%. In addition, the inhibition in vivo at 1 mg/kg in series [1] (1 h, 60 minutes after administration, read-out: Inhibition effect in the hypertension by angiotensin II, 60 minutes after administration) is below 10%. Besides, on angiotensin II receptor, the IC50 worked out at 220 nM. In addition, in the series with aortae of guinea pigs (Cavia porcellus), the concentration for half-maximal inhibition (IC50) is above 300 µM.
The molecule `CC(C)c1nc(C(C)C)n(Cc2ccc(-c3ccccc3/C=C3\NC(=O)CC3=O)cc2)n1` [Compound 1b, 3,5-Diisopropyl-1-[2′-[(2,4-dioxopyrrolidine-5-(Z)-ylidene)methyl]biphenyl-4-yl]methyl-1H-1,2,4-triazole] showed a melting point of 141 to 142 °C. In addition, the IC50 on angiotensin II receptor is above 7000 nM. The 50% inhibitory concentration (IC50) in the series on aortae of guinea pigs (Cavia porcellus) is above 300 µM.
Consider `CCCCc1nc(C2CC2)nn1Cc1ccc(-c2ccccc2/C=C2\NC(=O)CC2=O)cc1` [Compound 1c, 5-Butyl-3-cyclopropyl-1-[2′-[(2,4-dioxopyrrolidine-5(Z)-ylidene)methyl]biphenyl-4-yl]methyl-1H-1,2,4-triazole], for which the melting point was 166 to 168 °C. Besides, the concentration for half-maximal inhibition (IC50) at angiotensin II receptor was found to be 2000 nM. Moreover, the IC50 in the series on aortae of guinea pigs (Cavia porcellus) was above 300 µM.
`CCCCc1nc(-c2ccccc2)nn1Cc1ccc(-c2ccccc2/C=C2\NC(=O)CC2=O)cc1` [Compound 1e, 5-Butyl-3-phenyl-1-[2′-[(2,4-dioxopyrrolidine-5(Z)-ylidene)methyl]biphenyl-4-yl]methyl-1H-1,2,4-triazole]: the melting point was in the range of 180 to 181 °C. For the same molecule, the 50% inhibitory concentration (IC50) at angiotensin II receptor was above 6300 nM. In addition, the 50% inhibitory concentration (IC50) with aortae of guinea pigs (Cavia porcellus) was above 300 µM.
As for `CCCCc1nc(-c2ccc(F)cc2)nn1Cc1ccc(-c2ccccc2/C=C2\NC(=O)CC2=O)cc1` [Compound 1g, 5-Butyl-3-(4-fluorophenyl)-1-[2′-[(2,4-dioxopyrrolidine-5(Z)-ylidene)methyl]biphenyl-4-yl]methyl-1H-1,2,4-triazole], the melting point is 188 to 190 °C. The half-maximal inhibitory concentration (IC50) at angiotensin II receptor is above 6100 nM. The IC50 in the series with aortae of guinea pigs (Cavia porcellus) was above 300 µM.
`CCCCc1nc(-c2ccccc2F)nn1Cc1ccc(-c2ccccc2/C=C2\NC(=O)CC2=O)cc1` [Compound 1h, 5-Butyl-3-(2-fluorophenyl)-1-[2′-[(2,4-dioxopyrrolidine-5(Z)-ylidene)methyl]biphenyl-4-yl]methyl-1H-1,2,4-triazole]: the melting point was in the range of 169 to 170 °C. The concentration for half-maximal inhibition (IC50) at angiotensin II receptor is 4500 nM. Moreover, the IC50 in the series on aortae of guinea pigs (Cavia porcellus) is above 300 µM.
`CCCCc1nc(-c2ccncc2)nn1Cc1ccc(-c2ccccc2/C=C2\NC(=O)CC2=O)cc1` [Compound 1i, 5-Butyl-3-(pyridine-4-yl)-1-[2′-[(2,4-dioxopyrrolidine-5(Z)-ylidene)methyl]biphenyl-4-yl]methyl-1H-1,2,4-triazole] gave a melting point of 144 to 145 °C. The IC50 at angiotensin II receptor is above 6300 nM. Besides, the IC50 in the series on aortae of guinea pigs (Cavia porcellus) was above 300 µM.
In the case of `CCCCc1nc(-c2ccco2)nn1Cc1ccc(-c2ccccc2/C=C2\NC(=O)CC2=O)cc1` [Compound 1j, 5-Butyl-3-(furan-2-yl)-1-[2′-[(2,4-dioxopyrrolidine-5(Z)-ylidene)methyl]biphenyl-4-yl]methyl-1H-1,2,4-triazole], the melting point is 169 to 170 °C. In addition, the IC50 on angiotensin II receptor stood at 2200 nM. In addition, in the series on aortae of guinea pigs (Cavia porcellus), the 50% inhibitory concentration (IC50) is above 300 µM.
`CCCCc1nc(-c2cccs2)nn1Cc1ccc(-c2ccccc2/C=C2\NC(=O)CC2=O)cc1` [Compound 1k, 5-Butyl-3-(thiophene-2-yl)-1-[2′-[(2,4-dioxopyrrolidine-5(Z)-ylidene)methyl]biphenyl-4-yl]methyl-1H-1,2,4-triazole]: the melting point was 186 to 187 °C. Further, on angiotensin II receptor, the half-maximal inhibitory concentration (IC50) turned out to be 4200 nM. The half-inhibitory concentration (IC50) in the series with aortae of guinea pigs (Cavia porcellus) was above 300 µM.
`CC(C)c1nc(C(C)C)n(Cc2ccc(-c3ccccc3/C=C3\OC(=O)C=C3O)cc2)n1` [Compound 2b, 3,5-Diisopropyl-1-[2′-[(4-hydroxy-2(5H)-furanone-5(Z)-ylidene)methyl]biphenyl-4-yl]methyl-1H-1,2,4-triazole] had a melting point of 191 to 193 °C. Besides, on angiotensin II receptor, the IC50 was 930 nM. For the same molecule, in the series with aortae of guinea pigs (Cavia porcellus), the half-maximal inhibitory concentration (IC50) is above 300 µM.
Take `CCCCc1nc(-c2ccc(F)cc2)nn1Cc1ccc(-c2ccccc2/C=C2\OC(=O)C=C2O)cc1` [Compound 2g, 5-Butyl-3-(4-fluorophenyl)-1-[2′-[(4-hydroxy-2(5H)-furanone-5(Z)-ylidene)methyl]biphenyl-4-yl]methyl-1H-1,2,4-triazole]: the melting point was 175 to 176 °C. For the same molecule, the half-inhibitory concentration (IC50) on angiotensin II receptor amounted to 690 nM. Also, the half-inhibitory concentration (IC50) with aortae of guinea pigs (Cavia porcellus) was above 300 µM.
For `CCCCc1nc(-c2cccc(F)c2)nn1Cc1ccc(-c2ccccc2/C=C2\OC(=O)C=C2O)cc1` [Compound 2h, 5-Butyl-3-(3-fluorophenyl)-1-[2′-[(4-hydroxy-2(5H)-furanone-5(Z)-ylidene)methyl]biphenyl-4-yl]methyl-1H-1,2,4-triazole], the melting point fell in the range of 184 to 185 °C.
For `CCCCc1nnc(CCCC)n1Cc1ccc(-c2ccccc2/C=C2\NC(=O)CC2=O)cc1` [Compound 19a], the melting point lay in the range of 185 to 186 °C. Moreover, the IC50 on angiotensin II receptor was found to be 8000 nM. Besides, in the series on aortae of guinea pigs (Cavia porcellus), the IC50 was above 300 µM.
As for `CCCCc1nnc(CCCC)n1Cc1ccc(-c2ccccc2/C=C2\OC(=O)C=C2O)cc1` [Compound 19b, 3,5-Dibutyl-1-[2′-[(4-hydroxy-2(5H)-furanone-5(Z)-ylidene)-methyl]biphenyl-4-yl]methyl-4H-1,2,4-triazole], the IC50 on angiotensin II receptor is 680 nM; in the series with aortae of guinea pigs (Cavia porcellus), above 300 µM.
